Assay results as given in PMC9225741, “Inhibition of Streptococcus mutans adhesion and biofilm formation with small-molecule inhibitors of sortase A from Juniperus chinensis” (Journal of Oral Microbiology, 2022).
In brackets after ≈: the same amount, converted by molar mass. Entries after “also recorded” stand apart in the source; their conditions may differ. Read-outs that look alike come from different tables or passages of the source.

Experiments:
S. mutans OMZ65 = assay: Antibacterial activity assay (MIC, broth dilution); format: cell-based, Streptococcus mutans; conditions: S. mutans OMZ65, BHI broth, 16–20 h, 37°C, read-out: MIC (minimum inhibitory concentration)
Method: Antibacterial activities of isolated compounds were determined according to a previously described method based on Clinical and Laboratory Standards Institute guidelines. Briefly, 5 mL of S. mutans OMZ65 was inoculated into brain heart infusion (BHI) broth, incubated aerobically for 16 h at 37°C, and the bacterial density was adjusted based on turbidity to match the 0.5 MacFarland standard at 625 nm. In each well of a 96-well plate, 20 μL of twofold diluted test compounds in 10% DMSO was added to 180 μL of cell culture in BHI broth and incubated for 16–20 h at 37°C. The final concentration of cells was approximately 5 × 10^5 colony-forming units (CFU)/mL. The minimal inhibitory concentration (MIC) values were identified as the lowest concentration that inhibited cell growth. Ampicillin was used as an antibacterial positive control.

[1] = system: SrtA (from strain ATCC25175); parameters: method as in PMID 24154653; conditions: cited from earlier work
S. mutans SrtA = target: T1, S. mutans SrtA (Streptococcus mutans, UniProt Q8CM62); assay: biochemical; format: biochemical, Streptococcus mutans OMZ65
T1 construct: made in house; host or cells: Escherichia coli
T1 sequence (Q8CM62 entry or part of it): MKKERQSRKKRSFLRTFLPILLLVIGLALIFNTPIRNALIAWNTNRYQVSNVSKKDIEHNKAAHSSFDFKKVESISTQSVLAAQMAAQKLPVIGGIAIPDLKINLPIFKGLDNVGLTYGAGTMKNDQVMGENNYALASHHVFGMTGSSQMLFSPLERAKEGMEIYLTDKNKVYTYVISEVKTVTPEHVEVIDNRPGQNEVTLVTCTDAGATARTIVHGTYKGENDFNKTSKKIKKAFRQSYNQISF
Method: Recombinant SrtA protein was prepared following previously described procedures. S. mutans OMZ65 isolated from the human oral cavity was provided by Seoul National University School of Dentistry. The srtA genes derived from S. mutans OMZ65 were expressed in Escherichia coli and SrtA was purified through metal chelate affinity chromatography on Ni-nitriloacetic acid (NTA) resin. Each reaction was performed in a total volume of 100 μL, containing 50 mM Tris-HCl, 150 mM NaCl, and 5 mM CaCl2 at pH 7.5, along with 17 μg of purified SrtA and 250 ng of synthetic substrate (Dabcyl-LPETG-Edans). The sample compounds were added to each reaction mixture with the solvent DMSO (final concentration, 1%). After 1 h of incubation at 37°C, the reactions were quantified based on fluorometric intensity (350 nm excitation and 495 nm emission wavelengths) using a microplate reader (FLx800, BioTek Instruments, Winooski, VT). Triphasiol was used as a positive control for the SrtA inhibitor.
Recombinant SrtA protein derived from S. mutans OMZ65 was prepared from an extract of E. coli transformant using Ni-NTA affinity chromatography. SrtA enzyme activities were measured through a fluorophotometric method using synthetic peptide substrate containing the LPETG motif. […] As SrtA inhibitors may act as anti-infective agents and disrupt bacterial infectiousness without impacting bacterial viability, the MICs of the isolated compounds were evaluated to identify possible effects on S. mutans aggregation, adhesion, and biofilm formation on solid surfaces.

S. mutans = assay: Biofilm formation assay (polystyrene plate and resin teeth, safranin staining); format: cell-based, Streptococcus mutans; conditions: 24 h
Method: The effect of SrtA inhibition on bacterial biofilm formation was investigated using the polystyrene plate and resin teeth model according to a previously described method. Wild-type S. mutans and srtA mutants were inoculated aerobically into 5 mL of BHI broth at 37°C. Cultures in BHI broth containing 0.1% sucrose (final concentration 5 × 10^5 CFU/mL) were incubated with or without test compounds on 96-well polystyrene plates or with resin teeth (Endura, Shofu Inc., Kyoto, Japan) at 37°C for 24 h under aerobic condition. Biofilms formed on the plate and resin teeth were washed twice with distilled water and then stained with 0.1% safranin for 30 s. After three further washes, the safranin-bound biofilms on plates were dissolved with 30% acetic acid (v/v aqueous solution) and the intensity of absorbance at 530 nm wavelength, indicating safranin, was measured. Biofilms on resin teeth was also washed three times and photographed.
Bacterial adherence and aggregation are initial steps in the biofilm formation process. Through interruption of SrtA enzyme activity, biofilm formation by S. mutans could also be disrupted. To investigate the effect of compound 1 on biofilm formation of S. mutans, the biofilm biomasses of NG8 and srtA mutants formed over 24 h on 96-well plates and resin teeth were assessed through staining with 0.1% safranin.
Figure 5. Inhibition of Streptococcus mutans biofilm formation by compound 1. Biofilm formation assays were performed using a polystyrene 96-well plate (A) and artificial resin teeth (B) at 37°C for 24 h under aerobic condition. […] 0.1% NaF was used as a positive control. Data are presented as the mean ± SD of three independent experiments (* p < 0.05, ** p < 0.01, and *** p < 0.001 based on Student’s t-test).

S. mutans NG8 [2] = assay: Saliva-induced aggregation assay; format: cell-based, Streptococcus mutans
Method: The effect of SrtA inhibitor on bacterial cell aggregation induced by human saliva was conducted according to a previously documented procedure. S. mutans NG8 (wild-type), srtA-deletion mutant (ΔsrtA), and srtA-complemented mutant (ΔsrtA+srtA) were used in this study. These strains were kindly provided by Prof. S. F. Lee (Dalhousie University, Nova Scotia, Canada) and inoculated into Todd Hewitt broth and incubated for 16 h at 37°C, washed twice with KPBS (137 mM NaCl, 2.7 mM KCl, 6.5 mM Na2HPO4, 1.5 mM KH2PO4, pH 7.2), and resuspended in KPBS to an approximate optical density of 1.0 at 700 nm. Assay mixtures consisted of 400 μL of cells, 100 μL of fresh clarified saliva, and diluted test compounds. Saliva was provided from one volunteer (a unmarried person) who had no dental health issues. The collected non-stimulated saliva was clarified by centrifugation (7,000 × g, 10 min, 4°C) and sterilized by membrane filtration (0.2 μm pore size). The mixtures were gently mixed through inversion and incubated aerobically at 37°C for 2 h. Turbidity at 700 nm was recorded every 20 min.
Using a combined bioactivity test, we subsequently examined the inhibitory effects of compound 1 on saliva-induced aggregation of S. mutans (Figure 3). […] Aggregation levels were measured based on the decrease of turbidity at 700 nm. […]

S. mutans NG8 [3] = assay: Adherence assay on saliva-coated hydroxyapatite beads; format: cell-based, Streptococcus mutans; conditions: 90 min
Method: The effect of SrtA inhibition on bacterial adherence was evaluated using saliva-coated hydroxyapatite beads (s-HAs) [11, 25]. A total of 30 μg of s-HAs (diameter, 80 µm; Bio-Rad, Hercules, CA) were coated with fresh saliva prepared as mentioned above for 1 h at room temperature and rinsed twice with 0.01 M potassium phosphate buffer (KPB; pH 7.0). S. mutans NG8 (wild type), srtA-deletion mutant (ΔsrtA), and srtA-complemented mutant (ΔsrtA + srtA) [11] were inoculated into 5 mL of BHI broth, incubated aerobically for 16 h at 37°C, and diluted to about 10^8 CFU/mL. […] After three rounds of washing with KPB, attachment between s-HAs and S. mutans cells was disrupted through sonication (50 W, 30s) in KPB. Dispersed cells were spread on Mitis-Salivarius agar (Difco, Detroit, MI) plates containing 3.2 mg/mL bacitracin. The number of colonies formed was determined after incubation for 48 h at 37°C.
In the present study, the role of SrtA inhibitors in modulating cell-surface-related properties of S. mutans was investigated in terms of adherence.
Attachment of S. mutans NG8, srtA-deletion mutant (ΔsrtA), and srtA-complemented mutant (ΔsrtA+srtA) was induced for 90 min at 37°C under aerobic condition, followed by dispersal via sonication (50 W, 30s) after three washes, and then colony-forming unit counting on Mitis-Salivarius agar (3.2 mg/mL bacitracin) after incubation for 48 h at 37°C. […]

[4] = system: S. aureus ATCC6537p-derived SrtA; parameters: method as in PMID 16010573; conditions: cited from earlier work
SrtA S. mutans OMZ65 = system: SrtA S. mutans OMZ65; parameters: method as in PMID 25746812; conditions: read-out: IC50, SrtA inhibitors against S. mutans OMZ65; cited from earlier work
[5] = system: SrtA derived from S. mutans UA159; conditions: cited from earlier work
SrtA = conditions: read-out: IC50, SrtA activity; cited from earlier work
[6] = SrtA IC50, recombinant SrtA from S. mutans OMZ65, 1 h, 37°C

CC1(C)S[C@@H]2[C@H](NC(=O)[C@H](N)c3ccccc3)C(=O)N2[C@H]1C(=O)O [Ampicillin, reference compound]
MIC (S. mutans OMZ65; Streptococcus mutans): 0.4 µM (≈ 0.14 µg/mL)

C[C@@H]1O[C@@H](O[C@H]2C(=O)c3c(O)cc(O)cc3O[C@@H]2c2ccc(O)c(O)c2)[C@H](O)[C@H](O)[C@H]1O [Astillbin]
IC50, SrtA (from strain ATCC25175) [1]: 7.5 µg/mL (≈ 16.7 µM) | IC50 ([1]; value in brackets): 16.7 µM

COc1cc(C[C@H]2COC(=O)[C@@H]2Cc2cc(O)c(O)c(OC)c2)cc(O)c1O [Compound 1, 3’,3”-dihydroxy-(−)-matairesinol]
IC50 (S. mutans SrtA; [6]): 16.1 µM | biofilm formation on 96-well polystyrene plates (S. mutans; 4× the IC50 (64.4 μM), 0.1% sucrose): significantly reduced | concentrations disrupting biofilm formation on the surface of resin teeth (S. mutans; 0.1% sucrose, safranin staining): higher than 32.2 μM | saliva-induced cell aggregation (S. mutans NG8 [2]; 4× the IC50, without sucrose): significantly repressed | saliva-induced aggregation of NG8 cells (turbidity at 700 nm) (S. mutans NG8 [2]; tested at 0×, 1×, 2× and 4× the SrtA IC50 (16.1, 32.2, 64.4 μM), 2 h, 37°C): markedly reduced the aggregation of NG8 cells in a dose-dependent manner; also recorded: markedly reduced the aggregation capacity of the bacterial cells in a dose-dependent manner | MIC (S. mutans OMZ65): >300 µM | MIC (S. mutans OMZ65; Streptococcus mutans): > 300 µM | adherence of S. mutans to s-HAs vs control (NG8) (S. mutans NG8 [3]; 1× IC50 (16.1 μM)): not significantly different | decrease of bacterial adhesion to s-HAs compared to the control group (S. mutans NG8 [3]; 4× the IC50 (64.4 μM)): about 60%

COc1cc(C[C@H]2COC(=O)[C@@H]2Cc2ccc(O)c(OC)c2)ccc1O [Compound 2, (−)-matairesinol]
IC50 (S. mutans SrtA; [6]): > 300 µM | MIC (S. mutans OMZ65; Streptococcus mutans): > 300 µM

O=c1c(O)c(-c2ccc(O)c(O)c2)oc2cc(O)cc(O)c12 [Compound 3, quercetin]
SrtA inhibitory activity (in words) (S. mutans SrtA; S. mutans SrtA): weak inhibitory activities | MIC (S. mutans OMZ65; Streptococcus mutans): > 300 µM

COc1cc(O)cc(O)c1C(C)=O [Compound 4, 4,6-dihydroxy-2-methoxyacetophenone]
SrtA inhibitory activity (in words) (S. mutans SrtA; S. mutans SrtA): weak inhibitory activities | IC50 (S. mutans SrtA; [6]): 151 µM | IC50 (S. mutans SrtA; pIC50, pIC50 = −log10(IC50), S. mutans SrtA): 155 µM | MIC (S. mutans OMZ65; Streptococcus mutans): > 300 µM

CC(C)c1cc(=O)c(O)ccc1O [Compound 5, 5-hydroxyhinokitiol]
IC50 (S. mutans SrtA; [6]): 51.7 µM | MIC (S. mutans OMZ65; Streptococcus mutans): > 300 µM

C/C(=C\Cc1ccc(=O)c(O)cc1C(C)C)CO [Compound 6, juniperone A]
IC50 (S. mutans SrtA; [6]): 62.5 µM | MIC (S. mutans OMZ65; Streptococcus mutans): 257 µM (≈ 63.8 µg/mL)

[F-].[Na+] [NaF, reference compound]
effect on S. mutans biofilm formation (positive control) (S. mutans; 0.1%): potent inhibitory effects

CC(C)C(=O)Cc1c(OCC(O)C(C)(C)O)ccc2ccc(=O)oc12 (stereo not drawn) [Triphasiol, reference compound]
pIC50 (S. mutans SrtA; pIC50 = −log10(IC50), S. mutans SrtA): 4.60 | IC50 (S. mutans SrtA; recombinant SrtA from S. mutans OMZ65, 1 h, 37°C, read-out: SrtA IC50): 25.3 µM | IC50 [4]: 34.5 µM

O=C(O)/C=C/c1ccc(O)c(O)c1 [caffeic acid]
IC50 (SrtA S. mutans OMZ65): 20.2 µM

COc1cc(/C=C/C(=O)CC(=O)/C=C/c2ccc(O)c(OC)c2)ccc1O [curcumin]
IC50 [5]: 10.2 µM

O=c1c(O)c(-c2ccc(O)cc2O)oc2cc(O)cc(O)c12 [morin]
IC50 [5]: 27.2 µM

O=c1c(O)c(-c2cc(O)c(O)c(O)c2)oc2cc(O)cc(O)c12 [myricetin]
IC50 (SrtA): 48.7 µM

(−)-rosmarinic acid
IC50 (SrtA S. mutans OMZ65): 20.1 µM
